The source of these data is patent US10519177B2, “Heterocyclic compounds and uses thereof” (Plexxikon Inc., priority 2013, dated 2019).

SMILES strings stand for the structures.

The target in this assay is BRD4-BD1 (44-164) (Homo sapiens (Human), UniProt O60885). Description: Alphascreen binding assay BRD4-BD1. As to conditions: BRD4(1) H4; read-out: Biochemical activity (IC50 μM) BRD4(1) H4. The method, boiled down:
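AlphaScreen signal (nickel acceptor, streptavidin donor beads, 7.5 µg/ml each, read 30 min after addition) reports displacement of biotin-H4 K5/K8/K12/K16-acetyl peptide from His-BRD4 BD1 (44-164) or tandem BD12 (1-477).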

For the compound `Cc1noc(C)c1-c1cnc2c(I)cn(S(=O)(=O)c3ccccc3)c2c1` [P-0076, 4-[1-(benzenesulfonyl)-3-iodo-pyrrolo[3,2-b]pyridin-6-yl]-3,5-dimethyl-isoxazole], the 50% inhibitory concentration (IC50) is less than 1 µM.

For `Cc1noc(C)c1-c1cnc2c(-c3ccccc3)cn(S(=O)(=O)c3ccccc3)c2c1` [P-0077, 4-[1-(benzenesulfonyl)-3-phenyl-pyrrolo[3,2-b]pyridin-6-yl]-3,5-dimethyl-isoxazole], the IC50 is less than 1 µM.

As for `CCS(=O)(=O)n1cc(C(OC)C2CCC(F)(F)CC2)c2cc(-c3c(C)noc3C)cnc21` (centres unmarked) [P-0078, 4-[3-[(4,4-difluoro-cyclohexyl)-methoxy-methyl]-1-ethylsulfonyl-pyrrolo[2,3-b]pyridin-5-yl]-3,5-dimethyl-isoxazole], the IC50 was less than 1 µM.

Regarding `Cc1noc(C)c1-c1cnc2c(-c3cccnc3)cn(S(=O)(=O)c3ccccc3)c2c1` [P-0084, 4-[1-(benzenesulfonyl)-3-(3-pyridyl)pyrrolo[3,2-b]pyridin-6-yl]-3,5-dimethyl-isoxazole], the IC50 is less than 1 µM.

For `Cc1noc(C)c1-c1cnc2[nH]cc(C(c3ccc(F)cc3)(C3CC3)C3CC3)c2c1` [P-0085, 4-[3-[dicyclopropyl-(4-fluorophenyl)methyl]-1H-pyrrolo[2,3-b]pyridin-5-yl]-3,5-dimethyl-isoxazole], the IC50 was less than 1 µM.

Consider `COC(c1c[nH]c2ncc(-c3c(C)noc3C)cc12)C1CCS(=O)(=O)CC1` (centres unmarked) [P-0089, 4-[[5-(3,5-dimethylisoxazol-4-yl)-1H-pyrrolo[2,3-b]pyridin-3-yl]-methoxy-methyl]thiane 1,1-dioxide], for which the IC50 is less than 1 µM.

With `Cc1noc(C)c1-c1cnc2c(c1)c(C(O)C1CCSCC1)cn2S(=O)(=O)c1ccccc1` (centres unmarked) [P-0090, [1-(benzenesulfonyl)-5-(3,5-dimethylisoxazol-4-yl)pyrrolo[2,3-b]pyridin-3-yl]-tetrahydrothiopyran-4-yl-methanol], the half-inhibitory concentration (IC50) is less than 1 µM.

With `Cc1noc(C)c1-c1cnc2[nH]cc(CC3CCS(=O)(=O)CC3)c2c1` [P-0098, 4-[[5-(3,5-dimethylisoxazol-4-yl)-1H-pyrrolo[2,3-b]pyridin-3-yl]methyl]thiane 1,1-dioxide], the IC50 is less than 1 µM.

`Cc1noc(C)c1-c1cnc2c(-c3cnc(C4CC4)nc3)cn(S(=O)(=O)C3CCCC3)c2c1` [P-0103, 4-[1-cyclopentyl-sulfonyl-3-(2-cyclopropylpyrimidin-5-yl)pyrrolo[3,2-b]pyridin-6-yl]-3,5-dimethyl-isoxazole]: the IC50 was less than 1 µM.

Regarding `COc1ncc(-c2cn(S(=O)(=O)c3ccccc3)c3cc(-c4c(C)noc4C)cnc23)cn1` [P-0104, 4-[1-(benzenesulfonyl)-3-(2-methoxypyrimidin-5-yl)pyrrolo[3,2-b]pyridin-6-yl]-3,5-dimethyl-isoxazole], the IC50 is less than 1 µM.

On to `COc1ncc(-c2cn(S(=O)(=O)C3CCCC3)c3cc(-c4c(C)noc4C)cnc23)cn1` [P-0105, 4-[1-cyclopentylsulfonyl-3-(2-methoxypyrimidin-5-yl)pyrrolo[3,2-b]pyridin-6-yl]-3,5-dimethyl-isoxazole], for which the 50% inhibitory concentration (IC50) was less than 1 µM.

Regarding `Cc1noc(C)c1-c1cnc2c(c1)c(CC1CCN(C(=O)C(F)(F)F)CC1)cn2C` [P-0106, 1-[4-[[5-(3,5-dimethylisoxazol-4-yl)-1-methyl-pyrrolo[2,3-b]pyridin-3-yl]methyl]-1-piperidyl]-2,2,2-trifluoro-ethanone], the IC50 is less than 1 µM.

With `Cc1noc(C)c1-c1cnc2c(-c3cnn(C)c3)cn(S(=O)(=O)c3ccccc3)c2c1` [P-0110, 4-[1-(benzenesulfonyl)-3-(1-methylpyrazol-4-yl)pyrrolo[3,2-b]pyridin-6-yl]-3,5-dimethyl-isoxazole], the IC50 was less than 1 µM.

For `CCCS(=O)(=O)n1cc(-c2cnn(C)c2)c2ncc(-c3c(C)noc3C)cc21` [P-0111, 3,5-dimethyl-4-[3-(1-methylpyrazol-4-yl)-1-propylsulfonyl-pyrrolo[3,2-b]pyridin-6-yl]isoxazole], the IC50 is less than 1 µM.
